From patent publication US4959493A, “Carboxycyclopropylglycine and process for producing the same” (Suntory Limited, priority 1987, dated 1990)
Where two headings read alike, the source gives them in different places.

Tests used:
[1] = test system: motoneurons in the isolated spinal cord of a neonatal rat; assay: Depolarization of motoneurons in the isolated spinal cord of a neonatal rat (extracellular records, Evans and Watkins method); assay type: cell-based; settings: for Effect of Mg++ ions on depolarizing activity: in the presence of Mg++ ions; for minimal effective concentration: read-out: MEC (minimum effective concentration for causing depolarizations of motoneurons); for Agonist type (glutamate receptor subtype): isolated new-born rat spinal cord; for Specific activity: relative to L-glutamic acid = 1
Method: In accordance with the method described in Evans, R. H. and Watkins, J. C., European J. Pharmac., 50 123-129, 1978, the minimum effective concentrations (MEC) of L-glutamic acid and compounds (1), (1a), (1b) and (1c) of the present invention for causing depolarizations of motoneurons in the isolated spinal cord of a neonatal rat under perfusion with an artificial physiological solution ([…] fluid) were measured as extracellular records in the […] root.

[2] = isolated from Aesculus parviflora and Blighia sapida; Fowden et al. 1969; cited from earlier work
[3] = isolated neonatal rat spinal cord perfused with artificial physiological solution, (-) = Ineffective

Row | Structure (SMILES) | Potency relative to NMDA ([1]; compared with NMDA activity of 2×10^-5 molar) [times] | Effect of Mg++ ions on depolarizing activity [1] | minimal effective concentration [1, 3] [µM] | Agonist type (glutamate receptor subtype) [1] | Specific activity ([1]; (-) = Ineffective) | Undesired effects [2] | minimal effective concentration ([1]; Rattus norvegicus) [µM]
1 | N[C@H](C(=O)O)[C@@H]1C[C@@H]1C(=O)O [Compound (1), (2S,3R,4S)-carboxycyclopropylglycine] | 5 | activity disappeared | 1 | agonist of the NMDA type | 100 |  | 
2 | N[C@H](C(=O)O)[C@H]1C[C@H]1C(=O)O [(1c), (2S,3S,4R)-carboxycyclopropylglycine] |  |  | 500 |  | 0.5 | hypoglycemia and vomiting | 
3 | N[C@H](C(=O)O)[C@H]1C[C@@H]1C(=O)O [(1a), (2S,3S,4S)-carboxycyclopropylglycine] |  | Unaffected | 50 | agonist of the kainate type | 5 | hypoglycemia and vomiting | 
4 | N[C@@H](CCC(=O)O)C(=O)O [L-Glu, L-glutamic acid, reference compound] |  |  |  |  | 1 |  | 100
